Measured values from a melting point compilation (Tetko et al.; mined from patent text by program, amines drawn as free bases though some values may be those of a salt).

melting point [°C]	SMILES
105	COC(=O)c1cc(-c2ccc(Cl)cc2)n(Cc2ccc(Cl)cc2Cl)n1
163 to 164	CC(C)NC(=O)OCC(=O)c1ccc(Cl)cc1
137 to 138	Nc1nc(=O)n(C2OC(CO)CC2O)cc1F (stereo not given)
> 250	Cc1cnc2c(NC(=O)c3c(Cl)cccc3Cl)cccc2c1N1CCNC1=O
161 to 164	O=C(O)c1ccc(Oc2ccc(Cl)cc2)cc1
150	NC1C2CN(C(=O)Nc3ccc(F)cc3)CC12 (stereo not given)
280 to 285	CCOC(=O)c1c[nH]c2nc(-c3ccncc3)c(F)cc2c1=O
95 to 99	Clc1ccc(CS[C@H]2CO[C@H](c3ccccc3)OC2)cc1
244 to 247	CC(=O)Nc1ccc(N2CCN(c3ccncc3)CC2)cc1
140 to 141	Cc1cc(-c2ccc(S(N)(=O)=O)cc2)n(-c2ccc(F)cc2F)c1
104 to 105	CC(C)(C)OC(=O)NCCOc1noc2ccc(F)cc12
169 to 171	O=C(CCc1ccccn1)Nc1cc(N2CC(c3ccccc3)OC2=O)ccn1 (stereo not given)
127 to 129	O=C(NCc1ccon1)c1ccnc(N2CCN(Cc3ccc(F)cc3)C2=O)c1
176 to 177	CN1CCN(C(=S)Nc2ccc3nc(C(C)(C)C)sc3c2)CC1
121 to 122	COC(=O)CCC(=O)c1ccc(-c2ccc(C)cc2)cc1
133	C=CCCC(O)=C(C#N)C(=O)Nc1ccc(C(F)(F)F)c(C)c1
95 to 105	CC(Oc1ccc2nc(NC(=O)NCCC3CCN(C(=O)OC(C)(C)C)CC3)sc2c1)c1c(Cl)ccc(F)c1Cl (stereo not given)
156 to 158	NC(=O)N1CCN(c2nn(-c3ccccc3Cl)c3ccccc23)CC1

melting point [°C]	SMILES
> 280	O=C(O)c1cccc2ncc(C3CCCCC3)cc12
205 to 210	CN1CCC(=C2c3ccccc3COc3ccc(C(=O)O)cc32)CC1
156 to 157	O=C(O)Cc1ccc2c(c1)C(=O)Cc1ccccc1O2
69 to 73	Cc1cc(NC(=O)c2cccc(CSc3cnccn3)c2)ccc1C(C)C
84 to 89	CCOc1cc2c(cc1OC)C(c1ccc(C(=O)N(C(C)C)C(C)C)cc1)=N[C@@H]1CCSC[C@H]21
225 to 230	O=C(Nc1ccc(C(=O)N2Cc3ccccc3Cc3ccccc32)cc1)c1cc(Cl)cc(Cl)c1Cl
132 to 133	COc1ccc(CCNC(=O)C23CC4CC(CC(C4)C2)C3)cc1OC
110 to 111	O=Cc1cccc(/C=C/c2ccc3cc(F)ccc3n2)c1
202 to 204	NC(=O)NCc1cc2c(Oc3ccc(Cl)cc3)cncc2s1
205 to 207	O=C(CSc1nc2ccccc2s1)NC1(C(=O)O)Cc2ccc(-c3ccc(Cl)cc3)cc2C1 (stereo not given)
259 to 263	O=C(Nc1ccc(Cl)c2c(-n3ccnc3)ccnc12)c1c(Cl)cccc1Cl
178	O=C1CCC(c2ccccc2)(c2ccccc2)[C@@H]2CN(C(=O)Cc3ccccc3N3CCCC3)C[C@H]12 (racemic)
240 to 244	O=C(Nc1ccc(-c2c[nH]c(=O)cn2)cc1)OCc1ccccc1
48 to 56	COCC[C@H]1CN(C2=Nc3ccccc3Nc3ccc(C(F)(F)F)cc32)CCN1C
78.5 to 80	O=S(=O)(c1ccccc1)N1CCCCC1CSc1ccc(Cl)cc1 (stereo not given)
116 to 120	NC(=O)c1sccc1S
231 to 233	COc1ccc2nccc(NC(=O)N3CCN(CC(O)c4ccc5c(c4)NC(=O)CO5)CC3)c2n1 (stereo not given)
198	N#Cc1ccc([C@@H]2CNC[C@@]23NC(=O)N(c2cc(Cl)cc(Cl)c2)C3=O)cc1 (relative stereo)

Further lines, the compound ahead of its results:

SMILES	melting point [°C]
COc1c(C)cc(N2CCN(S(=O)(=O)c3ccc(C)cc3)CC2)cc1C	174
C=CCc1cc2c(cc1OCC=Cc1ccccc1)CCC(=O)N2CC=Cc1ccccc1	88 to 89
NC(N)=Nc1nc(-c2cccc(CO)n2)cs1	229
CC1CCN(CCCC(=O)c2ccc3c(c2)Cc2cc(C(=O)CCCN4CCC(C)CC4)ccc2-3)CC1	180 to 181
Oc1cnccc1CCCOc1cccnc1Oc1cccc(F)c1	68 to 70
CCSc1cc(C)nc(SCC)c1NC(=O)CCCCCSc1nc2ccccc2s1	81 to 83
C=CC(C)Nc1c(-c2c(F)cc(F)cc2F)c(Cl)nc2ncnn12 (stereo not given)	101
CCc1cccc(C)c1COc1cc(C(=O)OC)cc2c1nc(C)n2C	157
CCNc1nc2ccc(CCc3nc4cc(C)ccn4c3C)cc2s1	165 to 166
CCOC(=O)c1nc2c(C)nn(CC)c2nc1OCC	81 to 82
CC12CCC(=O)C([N+](=O)[O-])=C1CCC1C2CCC2(C)C(O)CCC12 (stereo not given)	158 to 160
CCOc1cc2ncc(C#N)c(Nc3ccc4c(c3)OCCO4)c2cc1OCC	225 to 227
CCOC(=O)c1ccc2c(c1)ncn2-c1cccc(COCc2ccccn2)c1	99.8 to 101
CC(=O)N1C[C@H]2CCC[C@H]2OC1=O (relative stereo)	80 to 83
CCCc1c(OCCCCCC(=O)c2cc(C)c(OC)c(OC)c2C)ccc(C(=O)O)c1O	92 to 94
Cc1cccc2c1CCn1ncnc1C2=C1CCN(C)CC1	150
C=CCOc1ccc(C(=O)CC(C#N)c2ccc(OC)cc2OC)cc1 (stereo not given)	112 to 113
CCNc1cc(NS(=O)(=O)c2ccc(N)cc2)nc(NCC)n1	245 to 250
CC(CCCI)C(=O)Nc1nnc(C(C)(C)C)s1 (stereo not given)	102
O=C(O)C1CC(F)(F)CC1C(=O)O (stereo not given)	128
CCC(C)OC1OC(C(O)N(CC(C)C)C(=O)N(CCCl)N=O)C(O)C1O (stereo not given)	80 to 82
CCCCONC(=O)c1nc(-c2ccc(Cl)c(OC)c2F)cc(N)c1Cl	130 to 132

SMILES	melting point [°C]
CN(C)c1cccc(Oc2cccc(-c3cccc(C(=O)NCCC#N)c3)n2)c1	95 to 96
O=C(O)CCc1nc(-c2ccccc2)nc2ccccc12	159
COc1cccc(N2CCN(CCC(O)COc3ccccc3)CC2)c1 (stereo not given)	58 to 60
CC(C)(C)n1nc(-c2ccc(Cl)cc2)c2c(N)c(C#N)cnc21	213 to 215
CCCCOC(=O)[C@H]1NC(=O)[C@H]1N (relative stereo)	87 to 89
C(=Cc1ccc(-c2cc3c(ccc4oc5ccccc5c43)o2)cc1)c1ccccc1	239 to 241
COc1cc(C=CC(=O)C=Cc2ccc(OC(C)=O)c(OC)c2)ccc1OC(C)=O	150
CCc1c(C)[nH]c2cc(OCCOc3ccccc3)c(Cl)cc2c1=O	290 to 292
CCOC(=O)Cc1c(C(F)(F)F)c2ccc(O)cc2oc1=O	112 to 114
O=C(O)c1c(O)cccc1OCCC(c1ccccc1)(c1ccccc1)c1ccccc1	167 to 168
CCCCC1C=C(N)c2ncccc2N1CC(C)(C)O (stereo not given)	177 to 179
COc1ccc([N+](=O)[O-])c(CBr)c1	64 to 65
C=CCOc1ccc2ccc(N)nc2n1	138
CCc1oc2ccccc2c1C(=O)c1cc(-c2ccccc2)c(O)c(-c2ccccc2)c1	142 to 143
CC(C)(Sc1ccccc1)C(=O)O	62 to 64
NC(=O)CCC(=O)NCCS	173
C=CCN(C)c1c(C=NO)c(=O)n(C)c(=O)n1C	95.5 to 97.1
ClC(Cl)=NC(Cl)(Cl)C(Cl)(Cl)N=C(Cl)Cl	167
Cc1cc(=O)c(Oc2ccc(F)cc2C)c(-c2ccc(S(C)(=O)=O)cc2)o1	146
Fc1cccc(Cl)c1-c1cc(Cl)n(-c2ccc(COc3ncc(C(F)(F)F)cc3Cl)cc2)n1	120 to 121
COC(=O)c1ccccc1-c1ccc(CNc2nc(=O)[nH]c3ccccc23)cc1	140 to 160
CSc1cc(C)c(O)c(C)c1SC	98 to 100

SMILES	melting point [°C]
CCOc1cc(OCC)c2c(c1)S(=O)(=O)N(COc1cc(C(F)(F)F)nn1-c1ccccc1)C2=O	159 to 160
COc1cc(Nc2ncc(-c3cccc([N+](=O)[O-])c3)o2)ccc1-c1cnco1	279 to 281
CN(C)C[C@@H]1C(=O)N[C@H]1SC(c1ccccc1)(c1ccccc1)c1ccccc1 (relative stereo)	129 to 131
COc1ccc(-c2cccs2)cc1OC1CCCC1	67 to 68
CCSc1cc(C(=O)O)cc(S(N)(=O)=O)c1Oc1ccccc1	225 to 227
Cc1cc(-n2ccnc2)c2cccc(OCc3c(Cl)ccc(S(=O)(=O)N4CSC[C@H]4C(=O)O)c3Cl)c2n1	130
CCCC12CCC3=C(CCc4cc(O)ccc43)C1=CCC2=O (stereo not given)	149 to 155
COc1cc2c(c3c1OC(C)(C)C3)C(c1cccc(NC(=O)Nc3ccccn3)c1)=NC(C)(C)C2	189 to 191
CCOC(=O)C(CCC#N)(C(=O)OCC)c1ccc([N+](=O)[O-])cn1	59.5 to 61
N#CC(=Cc1cc(O)c(O)c(C#N)c1)C(=O)Nc1cccc(Cl)c1	236 to 240
CN1C(=O)C2(COc3cc4c(cc32)OCCO4)c2c(-c3ccoc3)cccc21 (stereo not given)	178 to 180
CCN1C(=O)C(C)(C)C(=O)N(C)c2cc(CN(CCn3ccc4oc(C)cc4c3=O)Cc3cccc4c3OCO4)ccc21	136 to 138
O=[N+]([O-])c1ccc(-c2cnc3nc(S(=O)(=O)Cl)nn3c2)cc1	159 to 167
COc1cc(C(=O)O)cc2c1oc1ccccc12	229 to 240
CCCc1nc(C=O)c[nH]1	104 to 106
CS(=O)CC(=NC1CCCCC1)c1cc2ccccc2cc1O (stereo not given)	132 to 136
CCCCOc1c(CNC(=O)OC(C)(C)C)n(CC(C)C)c(=O)c2ccc(-c3nc(C)c(C(N)=O)s3)cc12	234
CCN(CCCC12CC3CC(CC(C3)C1)C2)C(=O)NCCCc1ccncc1	97.5 to 98.2
O=c1c2c(CCc3ccccc3)n[nH]c2c2cccnc2n1-c1ccccc1	248 to 250
O=C1c2ccccc2C(=O)N1CC(Cc1ccc([N+](=O)[O-])cc1)=NO	181 to 183
